{"source": "patent US4766147A", "about": "“Novel 5-membered cyclic compounds, process for production thereof, and pharmaceutical use thereof” (priority 1982, dated 1988)", "key": {"L1210 leukemia cells [1]": {"system": "L1210 leukemia cells", "assay": "Cyto protection: cytotoxicity on L1210 leukemia cells and safety coefficient", "format": "cell-based, mouse", "conditions": "for Safety coefficient: LD50 on the normal cells/LD50 on the L1210 cells", "experimental": "(§1) Measurement of Cyto Protection\n(§2) Stomach epithelial cells taken from a rabbit fetus and aortic smooth muscle cells from a rat were used as normal cells, and L1210 leukemia cells were used as cancer cells. The cytotoxicity of each of the compounds shown in Table 6 on the normal cells was xamined.\nThe cytotoxicities LD50) of each of the test compounds on the stomach epithelial cells and the aortic smooth muscle cells were determined."}, "[2]": {"assay": "Cyto protection: cytotoxicity on stomach epithelial cells", "format": "cell-based", "conditions": "stomach epithelial cells; rabbit fetus cells, DME containing 20% FCS; read-out: LD50 Stomach epitherial cells", "experimental": "as §1, §2\n(§3) Specifically, the stomach epithelial cells were cultivated in DME containing 20% FCS, and the aortic smooth muscle cells were cultivated in MEM containing 10% CS. Each of the test compounds was dissolved in ethanol and added to the culture broth in an amount of 0.1%. The mixture was filtered through a millipore filter.\n(§4) The cytotoxicities LD50) of each of the test compounds on the stomach epithelial cells and the aortic smooth muscle cells were determined. Furthermore, from the LFD50 values, the safety coefficient (LD50 on the normal cells/LD50 on the L1210 cells) was calculated, and the results are also shown in Table 6."}, "L1210 leukemia cells [3]": {"system": "L1210 leukemia cells", "assay": "Inhibiting proliferation of L1210 leukemia cell", "format": "cell-based", "conditions": "Mus musculus, 96 h, 1×10^5 cells/ml, RPMI with 10% FCS, 37° C., 4 days, trypan blue", "experimental": "Measurement of the Action of Inhibiting Proliferation of L1210 Leukemia Cell\nL1210 leukemia cells were added to an RPMI medium containing 10% FCS (fetal calf serum), and the concentration of the cells was adjusted to 1×10^5 cells/ml. Each of the test compounds shown in Table 5 was dissolved in 99.5% ethanol. Prior to use, the final concentration of the ethanol solution was adjusted to less than 0.1%, and it was added to the culture medium. The culture medium was then maintained at 37° C. in a stationary condition for 4 days. After the cultivation, the number of surviving cells was measured by dyeing with trypan blue. As a control, 0.1% ethanol was used. A dose-reaction curve was plotted from the ratios of proliferation against the control, and IC50 was determined."}, "[4]": {"assay": "Cyto protection: cytotoxicity on aortic smooth muscle cells", "format": "cell-based", "conditions": "aortic smooth muscle cells; rat cells, MEM containing 10% CS; read-out: LD50 Aortic smooth muscle cells", "experimental": "as §1, §2, §3, §4"}, "Acute toxicity": {"assay": "Acute toxicity", "conditions": "mouse, in vivo, iv, four weeks old LR strain male mice (SPF)", "experimental": "Measurement of Acute Toxicity\nThe acute toxicity of one typical compound of this invention was measured by a customary method using four weeks old LR strain male mice (SPF)."}, "[5]": {"system": "mouse leukemia cell L1210", "conditions": "Biochem. Biophys. Res. Commn., 105, 956 (1982); cited from earlier work"}, "[6]": {"system": "Ehrlich ascites carcinoma cells", "assay": "Antitumor effect on Ehrlich ascites carcinoma in ICR mice", "format": "in vivo", "conditions": "30 mg/kg/day i.p. (methyl ester) or 20 mg/kg/day i.p. (12-epimer) for 5 days; for average number of days of survival: from 24 hours after tumor inoculation", "experimental": "Measurement of the Antitumor Effect On Ehrich Ascites Carcinoma\n1×10^5 Ehrlich ascites carcinoma cells were intraperitoneally administred to ICR mice. After the lapse of 24 hours, 30 mg/kg/day of 7(E)-7,8-dehydroprostaglandin A1 methyl ester and 20 mg/kg/day of its 12-epimer were each intraperitoneally administered to the mice for 5 days. The periods of survival of these animals were examined."}, "Stomach epithelial cells": {"system": "Stomach epithelial cells", "assay": "Cyto protection: cytotoxicity on stomach epithelial cells", "format": "cell-based", "conditions": "rabbit fetus cells, DME containing 20% FCS", "experimental": "as §1, §2, §3, §4"}, "[7]": {"system": "aortic smooth muscle cells", "assay": "Cyto protection: cytotoxicity on aortic smooth muscle cells", "format": "cell-based", "conditions": "rat cells, MEM containing 10% CS", "experimental": "as §1, §2, §3, §4"}}}
{"compound": "CCCCC[C@H](O)/C=C/[C@H]1C=CC(=O)/C1=C/CCCCCC(=O)O", "note": "[7(E)-7,8-Dehydroprostaglandin A1]", "values": [{"measurement": "Safety coefficient", "setting": "L1210 leukemia cells [1]", "result": "6-25"}, {"measurement": "IC50", "setting": "L1210 leukemia cells [1]; Mus musculus, L1210, cancer cells, read-out: LD50 L1210 leukemia cells", "result": "0.2 to 0.3", "unit": "µg/mL"}, {"measurement": "CC50", "setting": "[2]", "result": "2 to 5", "unit": "µg/mL"}, {"measurement": "IC50", "setting": "L1210 leukemia cells [3]", "result": 0.4, "unit": "µg/mL"}, {"measurement": "CC50", "setting": "[4]", "result": "2 to 5", "unit": "µg/mL"}, {"measurement": "LD50", "setting": "Acute toxicity", "result": 140, "unit": "mg/kg"}]}
{"compound": "COC(=O)CCCC#CC=C1C(=O)C=CC1C=CC(O)C1CCCC1", "note": "(stereo not shown) [4-(3-Hydroxy-3-cyclopentyl-1-propenyl)-5-(6-methoxycarbonyl-2-hexynylidene)-2-cyclopentenone]", "values": [{"measurement": "IC50", "setting": "L1210 leukemia cells [3]", "result": 0.3, "unit": "µg/mL"}]}
{"compound": "COC(=O)CCCC#CC(O)C1C(=O)C=CC1C=CC(O)C1CCCC1", "note": "(stereo not shown) [4-(3-hydroxy-3-cyclopentyl-1-propenyl)-5-(1-hydroxy-6-methoxycarbonyl-2-hexyn-1-yl)-2-cyclopentenone]", "values": [{"measurement": "IC50", "setting": "L1210 leukemia cells [3]", "result": 0.2, "unit": "µg/mL"}]}
{"compound": "CCCCC[C@H](O)/C=C/[C@H]1C(=O)C[C@H](O)[C@@H]1C/C=C\\CCCC(=O)O", "note": "[PGD2]", "values": [{"measurement": "IC50 of PGD2 on L1210 cell", "setting": "[5]", "result": 2.4, "unit": "micrograms/ml"}]}
{"compound": "CCCCCCC=CC1C=CC(=O)C1=CCCCCCC(=O)OC", "note": "(stereo not shown) [4-(1-octenyl)-5-(6-methoxycarbonylhexylidene)-2-cyclopentenone]", "values": [{"measurement": "IC50", "setting": "L1210 leukemia cells [3]", "result": 0.3, "unit": "µg/mL"}]}
{"compound": "COC12C(COC(N)=O)C3=C(C(=O)C(C)=C(N)C3=O)N1CC1NC12", "note": "(stereo not shown) [Mytomycin C, reference compound]", "values": [{"measurement": "CC50", "setting": "[2]", "result": "0.01 to 0.02", "unit": "µg/mL"}, {"measurement": "CC50", "setting": "[4]", "result": 0.01, "unit": "µg/mL"}]}
{"compound": "CCCCC[C@H](O)/C=C/[C@@H]1C=CC(=O)/C1=C/CCCCCC(=O)OC", "note": "[12-epi-(7E)-7,8-dehydro PGA1 methyl ester]", "values": [{"measurement": "increase of life span (ILS %) over the control", "setting": "[6]", "result": 76.5, "unit": "%"}, {"measurement": "ratio of survival for more than 60 days", "setting": "[6]", "result": "1/6"}, {"measurement": "average number of days of survival", "setting": "[6]", "result": "33.0 ± 9.8", "unit": "days"}, {"measurement": "IC50", "setting": "L1210 leukemia cells [3]", "result": 0.2, "unit": "µg/mL"}]}
{"compound": "CCCCC1C=CC(=O)C1=CCCCCCC(=O)OC", "note": "(stereo not shown) [4-Butyl-5-(6-methoxycarbonylhexylidene)-2-cyclopentenone]", "values": [{"measurement": "IC50", "setting": "L1210 leukemia cells [3]", "result": 0.3, "unit": "µg/mL"}]}
{"compound": "CCCCC[C@H](O)/C=C/[C@H]1C=CC(=O)/C1=C/CCCCCC(=O)OC", "note": "[(7E)-7,8-dehydro PGA1 methyl ester]", "values": [{"measurement": "increase of life span (ILS %) over the control", "setting": "[6]", "result": 65.8, "unit": "%"}, {"measurement": "ratio of survival for more than 60 days", "setting": "[6]", "result": "2/6"}, {"measurement": "average number of days of survival", "setting": "[6]", "result": "31 ± 1.9", "unit": "days"}]}
{"compound": "CCCCCC(O)C=CC1C=CC(=O)C1=CCCCCCC(=O)O", "note": "(stereo not shown) [12-Epimer of 7(E)-7,8-dehydroprostaglandin A1]", "values": [{"measurement": "Safety coefficient", "setting": "L1210 leukemia cells [1]", "result": "2.5-10"}, {"measurement": "LD50 L1210 leukemia cells", "setting": "L1210 leukemia cells [1]; cancer cells", "result": "0.2 to 0.4", "unit": "µg/mL"}, {"measurement": "LD50 Stomach epitherial cells", "setting": "Stomach epithelial cells", "result": "1 to 2", "unit": "µg/mL"}, {"measurement": "LD50 Aortic smooth muscle cells", "setting": "[7]", "result": "1 to 2", "unit": "µg/mL"}]}
{"compound": "CCCCC[C@H](O)/C=C/[C@@H]1/C(=C\\CCCCCC(=O)O)C(=O)C[C@H]1O", "note": "[7(E)-7,8-Dehydroprostaglandin E1]", "values": [{"measurement": "IC50", "setting": "L1210 leukemia cells [3]", "result": 0.7, "unit": "µg/mL"}]}
